In article PMC6270516 (Molecules, 2013):
Values after ≈ are worked out from the molar mass of the structure shown.

Experiments:
physchem [1] = conditions: simulated gastric fluid
physchem [2] = conditions: fassgf or other biorelevant

| SMILES | melting point | solubility (physchem [1]) [µg/mL] | solubility (physchem [2]) [µg/mL] |
| --- | --- | --- | --- |
| CN1c2ccccc2C(=O)N2CCc3c(n(CCCBr)c4ccccc34)C21 (centres unmarked) | 130 to 132 °C |  |  |
| CN1c2ccccc2C(=O)N2CCc3c(n(CCOCCOCCCl)c4ccccc34)C21 (centres unmarked) | 126 to 128 °C |  |  |
| C=CCn1c2c(c3ccccc31)CCN1C(=O)c3ccccc3N(C)C21 (centres unmarked) [2-1, N13-Allylevodiamine] | 163 to 165 °C | 60 (≈ 175 µM) | 175 (≈ 510 µM) |
| CCCCn1c2c(c3ccccc31)CCN1C(=O)c3ccccc3N(C)C21 (centres unmarked) [2-2, N13-Butylevodiamine] | 141 to 143 °C | > 120 | > 334 |
| CCCCCn1c2c(c3ccccc31)CCN1C(=O)c3ccccc3N(C)C21 (centres unmarked) [2-3, N13-Pentylevodiamine] | 143 to 145 °C | 60 to 120 (≈ 161 to 321 µM) | 322 (≈ 862 µM) |
| CC(C)=CCn1c2c(c3ccccc31)CCN1C(=O)c3ccccc3N(C)C21 (centres unmarked) [2-4, N13-(3-Methyl-2-butenyl)evodiamine] |  | 60 (≈ 162 µM) | 162 (≈ 436 µM) |
| CCCCCCCCn1c2c(c3ccccc31)CCN1C(=O)c3ccccc3N(C)C21 (centres unmarked) [2-5, N13-Octylevodiamine] | 65 to 67 °C | 30 (≈ 72.2 µM) | 72.3 (≈ 174 µM) |
| CN1c2ccccc2C(=O)N2CCc3c(n(CCCc4ccccc4)c4ccccc34)C21 (centres unmarked) [2-6, N13-(3-Phenylpropyl)evodiamine] | 158 to 160 °C | 60 (≈ 142 µM) | 142 (≈ 338 µM) |
| CC(C)Cn1c2c(c3ccccc31)CCN1C(=O)c3ccccc3N(C)C21 (centres unmarked) [2-7, N13-Isobutylevodiamine] | 154 to 156 °C | > 110 | > 310 |
| CC(C)CCn1c2c(c3ccccc31)CCN1C(=O)c3ccccc3N(C)C21 (centres unmarked) [2-8, N13-Isopentylevodiamine] | 108 to 110 °C | > 150 | > 373 |
| CN1c2ccccc2C(=O)N2CCc3c(n(CCCCl)c4ccccc34)C21 (centres unmarked) [2-9, N13-(3-Chloropropyl)evodiamine] | 118 to 120 °C | 60 to 120 (≈ 158 to 316 µM) | 322 (≈ 848 µM) |
| CN1c2ccccc2C(=O)N2CCc3c(n(CCCCCl)c4ccccc34)C21 (centres unmarked) [2-11, N13-(4-Chlorobutyl)evodiamine] | 127 to 129 °C | 98 (≈ 249 µM) | 273 (≈ 693 µM) |
| CN1c2ccccc2C(=O)N2CCc3c(n(CC(=O)c4ccccc4)c4ccccc34)C21 (centres unmarked) [2-13, N13-(Benzonylmethyl)evodiamine] | 245 °C (dec.) | 30 to 60 (≈ 71.2 to 142 µM) | 73.7 to 147 (≈ 175 to 349 µM) |
| COCCn1c2c(c3ccccc31)CCN1C(=O)c3ccccc3N(C)C21 (centres unmarked) [2-14, N13-(2-Methoxyethyl)evodiamine] | 166 to 168 °C | 15 to 30 (≈ 41.5 to 83 µM) | 41.6 to 83.1 (≈ 115 to 230 µM) |
| CCCCOCCn1c2c(c3ccccc31)CCN1C(=O)c3ccccc3N(C)C21 (centres unmarked) [2-15, N13-(2-Butoxyethyl)evodiamine] | 68 to 70 °C | 30 to 120 (≈ 74.3 to 297 µM) | 74.4 to 298 (≈ 184 to 738 µM) |
| COCCOCCn1c2c(c3ccccc31)CCN1C(=O)c3ccccc3N(C)C21 (centres unmarked) [2-17, N13-(2-(2-Methoxyethoxy)ethyl)evodiamine] | 116 to 118 °C | 60 (≈ 148 µM) | 148 (≈ 365 µM) |
| CCOC(Cn1c2c(c3ccccc31)CCN1C(=O)c3ccccc3N(C)C21)OCC (centres unmarked) [2-18, N13-(2,2-Diethoxyethyl)evodiamine] | 117 to 119 °C | > 120 | 286 (≈ 682 µM) |

| SMILES | melting point | solubility (physchem [1]) [µg/mL] | solubility (physchem [2]) [µg/mL] |
| --- | --- | --- | --- |
| CC(=O)OCCn1c2c(c3ccccc31)CCN1C(=O)c3ccccc3N(C)C21 (centres unmarked) [2-19, N13-(2-Acetoxyethyl)evodiamine] | 211 to 213 °C | > 120 | 308 (≈ 791 µM) |
| CC(=O)OCCCn1c2c(c3ccccc31)CCN1C(=O)c3ccccc3N(C)C21 (centres unmarked) [2-20, N13-(3-Acetoxypropyl)evodiamine] |  | > 120 | 278 (≈ 689 µM) |
| CCC(=O)OCCn1c2c(c3ccccc31)CCN1C(=O)c3ccccc3N(C)C21 (centres unmarked) [2-21, N13-(2-Propionyloxyethyl)evodiamine] | 205 to 206 °C | > 120 | > 308 |
| CCOC(=O)CCn1c2c(c3ccccc31)CCN1C(=O)c3ccccc3N(C)C21 (centres unmarked) [2-22, N13-(2-(Ethoxycarbonyl)ethyl)evodiamine] |  | > 120 | 265 (≈ 657 µM) |
| CCOC(=O)CCCn1c2c(c3ccccc31)CCN1C(=O)c3ccccc3N(C)C21 (centres unmarked) [2-23, N13-(3-(Ethoxycarbonyl)propyl)evodiamine] | 265 to 268 °C | 30 (≈ 71.9 µM) | 71.9 (≈ 172 µM) |
| CN1c2ccccc2C(=O)N2CCc3c(n(CC4CO4)c4ccccc34)C21 (centres unmarked) [2-24, N13-((Oxiran-2-yl)methyl)evodiamine] | 189 to 191 °C | 20 (≈ 55.6 µM) | 55.7 (≈ 155 µM) |
| CN1c2ccccc2C(=O)N2CCc3c(n(CCCCCBr)c4ccccc34)C21 (centres unmarked) [2-26, N13-(5-Bromopentyl)evodiamine] |  | 67.8 (≈ 150 µM) | 132 (≈ 292 µM) |
| CCCOC(=O)Cn1c2c(c3ccccc31)CCN1C(=O)c3ccccc3N(C)C21 (centres unmarked) [2-27, N13-(Propoxycarbonylmethyl)evodiamine] | 168 to 170 °C | 72.9 (≈ 181 µM) | 132 (≈ 326 µM) |
| CCOC(=O)CCCCn1c2c(c3ccccc31)CCN1C(=O)c3ccccc3N(C)C21 (centres unmarked) [2-28, N13-(4-(Ethoxycarbonyl)butyl)evodiamine] | 251 to 253 °C | 89.4 (≈ 207 µM) | 166 (≈ 384 µM) |
| CN1c2ccccc2C(=O)N2CCc3c(n(CCCCCn4c5c(c6ccccc64)CCN4C(=O)c6ccccc6N(C)C54)c4ccccc34)C21 (centres unmarked) [3-1, 1,5-Bis-(evodiamin-N13-yl)pentane] | 217 to 219 °C | > 120 | > 350 |
| CN1c2ccccc2C(=O)N2CCc3c(n(CCCCCCn4c5c(c6ccccc64)CCN4C(=O)c6ccccc6N(C)C54)c4ccccc34)C21 (centres unmarked) [3-2, N1,6-Bis-(evodiamin-N13-yl)hexane] | 131 to 133 °C | > 120 | > 320 |
| CN1c2ccccc2C(=O)N2CCc3c(n(CCO)c4ccccc34)C21 (centres unmarked) [4-1, N13-(2-Hyroxyethyl)evodiamine] | 166 to 168 °C | > 220 | 320 (≈ 921 µM) |
| CN1c2ccccc2C(=O)N2CCc3c(n(CC=NO)c4ccccc34)C21 (centres unmarked) [6-1, 2-(Evodiamin-N13-yl)acetaldehyde oxime] |  | 60 (≈ 166 µM) | 167 (≈ 463 µM) |
| CON=CCn1c2c(c3ccccc31)CCN1C(=O)c3ccccc3N(C)C21 (centres unmarked) [6-2, 2-(Evodiamin-N13-yl)acetaldehyde O-methyl oxime] | 216 °C (dec.) | 60 (≈ 160 µM) | 160 (≈ 428 µM) |
| CN1c2ccccc2C(=O)N2CCc3c(n(CCCC(=O)O)c4ccccc34)C21 (centres unmarked) [compound 5, 4-(Evodiamin-N13-yl)butyric acid] | 234 °C (dec.) | 60 (≈ 154 µM) | 154 (≈ 395 µM) |
| CN1c2ccccc2C(=O)N2CCc3c(n(CC=O)c4ccccc34)C21 (centres unmarked) [compound 6, 2-(Evodiamin-N13-yl)acetaldehyde] |  | 60 (≈ 174 µM) | 174 (≈ 503 µM) |
